# Active and inactive are the calls of the source. No rule for the calls is given here.
# Test system: rodent lifetime carcinogenesis bioassay, tumor incidence TD50
# Experiment: carcinogenic potency in animals, long-term in vivo studies, CPDB compilation (AID 1745844)
compound,measurement,setting,value
Cc1cccc(Nc2cc(Cl)nc(SCC(=O)O)n2)c1C,carcinogen call,"hamster, strain Syrian, MB strain, males, in feed, site: liver, lesion: several types, types named in the paper, dosed 60 weeks, study length 60 weeks",negative (inactive)
same,carcinogen call,"mouse, strain CSb, males, in feed, site: liver, lesion: hepatocellular carcinoma, dosed 53 weeks, study length 63 weeks",positive
same,TD50,"rat, strain F344/DuCrj, males, in feed, site: liver, lesion: several types, types named in the paper, dosed 52 weeks, study length 52 weeks",4.26 mg/kg/day
same,carcinogen call,"rat, strain F344/DuCrj, males, in feed, site: liver, lesion: several types, types named in the paper, dosed 78 weeks, study length 78 weeks",positive
same,TD50,"rat, strain Fischer 344, males, in feed, site: liver, lesion: hepatocellular adenoma, dosed 37 weeks, study length 52 weeks",95.1 mg/kg/day
same,TD50,"rat, strain Fischer 344, males, in feed, site: liver, lesion: hepatocellular adenoma, dosed 37 weeks, study length 104 weeks",190 mg/kg/day
same,TD50,"rat, strain Fischer 344, males, in feed, site: liver, lesion: hepatocellular adenoma, dosed 52 weeks, study length 52 weeks",2.29 mg/kg/day
same,TD50,"rat, strain Fischer 344, males, in feed, site: liver, lesion: hepatocellular adenoma, dosed 52 weeks, study length 104 weeks",84.3 mg/kg/day
same,carcinogen call,"rat, strain Fischer 344, males, in feed, site: liver, lesion: hepatocellular carcinoma, trabecular, dosed 69 weeks, study length 69 weeks",positive
same,TD50,"rat, strain Fischer 344, males, in feed, site: liver, lesion: hepatocellular carcinoma, dosed 37 weeks, study length 104 weeks",92.6 mg/kg/day
same,TD50,"rat, strain Fischer 344, males, in feed, site: liver, lesion: hepatocellular carcinoma, dosed 52 weeks, study length 52 weeks",19.2 mg/kg/day
same,TD50,"rat, strain Fischer 344, males, in feed, site: liver, lesion: hepatocellular carcinoma, dosed 52 weeks, study length 104 weeks",26.8 mg/kg/day
same,carcinogen call,"rat, strain Fischer 344, males, in feed, site: liver, lesion: hepatocellular carcinoma, dosed 65 weeks, study length 65 weeks",positive
same,TD50,"rat, strain Fischer 344, males, in feed, site: liver, lesion: several types, types named in the paper, dosed 37 weeks, study length 104 weeks",60 mg/kg/day
same,carcinogen call,"rat, strain Fischer 344, males, in feed, site: liver, lesion: several types, types named in the paper, dosed 52 weeks, study length 52 weeks",positive
same,TD50,"rat, strain Fischer 344, males, in feed, site: liver, lesion: several types, types named in the paper, dosed 52 weeks, study length 104 weeks",22.9 mg/kg/day
same,carcinogen call,"rat, strain Sprague-Dawley, males, in feed, site: liver, lesion: several types, types named in the paper, dosed 60 weeks, study length 60 weeks",positive
CC(C)(OCc1ccc(-c2ccc(Cl)cc2)cc1)C(=O)O,carcinogen call,"hamster, strain Syrian Golden, females, in feed, site: liver, lesion: one or several types, types not named, dosed 104 weeks, study length 104 weeks",negative (inactive)
same,carcinogen call,"hamster, strain Syrian Golden, females, in feed, site: lung, lesion: one or several types, types not named, dosed 104 weeks, study length 104 weeks",negative (inactive)
same,carcinogen call,"hamster, strain Syrian Golden, males, in feed, site: liver, lesion: one or several types, types not named, dosed 104 weeks, study length 104 weeks",negative (inactive)
same,TD50,"hamster, strain Syrian Golden, males, in feed, site: lung, lesion: one or several types, types not named, dosed 104 weeks, study length 104 weeks",1510 mg/kg/day (inactive)
same,TD50,"mouse, strain C57BL/10J, females, in feed, site: liver, lesion: hepatocellular carcinoma, dosed 78 weeks, study length 78 weeks",870 mg/kg/day
same,TD50,"mouse, strain C57BL/10J, females, in feed, site: lung, lesion: one or several types, types not named, dosed 78 weeks, study length 78 weeks",1010 mg/kg/day
same,TD50,"mouse, strain C57BL/10J, males, in feed, site: liver, lesion: hepatocellular adenoma, dosed 78 weeks, study length 78 weeks",154 mg/kg/day
same,TD50,"mouse, strain C57BL/10J, males, in feed, site: liver, lesion: hepatocellular carcinoma, dosed 78 weeks, study length 78 weeks",214 mg/kg/day
same,TD50,"rat, strain Alpk:APfSD, males, in feed, site: liver, lesion: hepatocellular adenoma, dosed 104 weeks, study length 104 weeks",62.5 mg/kg/day
C=C(C)C#N,carcinogen call,"mouse, strain B6C3F1, females, by gavage, site: any site (literature study), lesion: several types, types named in the paper, dosed 104 weeks, study length 104 weeks",negative (inactive)
same,TD50,"mouse, strain B6C3F1, females, by gavage, site: lung, lesion: alveolar/bronchiolar adenoma + alveolar/bronchiolar carcinoma, dosed 104 weeks, study length 104 weeks",178 mg/kg/day
same,carcinogen call,"mouse, strain B6C3F1, males, by gavage, site: any site (literature study), lesion: several types, types named in the paper, dosed 104 weeks, study length 104 weeks",negative (inactive)
same,TD50,"mouse, strain B6C3F1, males, by gavage, site: lung, lesion: alveolar/bronchiolar adenoma + alveolar/bronchiolar carcinoma, dosed 104 weeks, study length 104 weeks",160 mg/kg/day
same,TD50,"rat, strain Fischer 344, females, by gavage, site: any site (literature study), lesion: several types, types named in the paper, dosed 104 weeks, study length 104 weeks",323 mg/kg/day (inactive)
same,TD50,"rat, strain Fischer 344, males, by gavage, site: subcutaneous tissue, lesion: fibrosarcoma + fibrous histiocytoma + sarcoma, dosed 104 weeks, study length 104 weeks",205 mg/kg/day (inactive)
